Test [1] concerns the target SbnA (Staphylococcus aureus, UniProt A6QDA0). The test can be described thus: coupled inorganic phosphate release assay. Type of test: biochemical.
Test [2] deals with SbnA (Staphylococcus aureus, UniProt A6QDA0, S185G). The test can be described thus: biochemical.
Test [3] has as its target SbnA (Staphylococcus aureus, UniProt A6QDA0, S185G/Y152F). The test can be described thus: biochemical.

SMILES strings stand for the structures.

A word on the Ki: it is the dissociation constant of the complex between target and ligand, obtained from inhibition or displacement. One may read the Kd as the constant that tells how readily two partners part at equilibrium. Lower therefore signals tighter binding. In the case of `N[C@@H](CS)C(=O)O` [L-cysteine], the Ki on SbnA [1] was found to be 91 ± 16 µM; at SbnA [2], 2100 ± 500 µM. The compound also showed a Kd on SbnA [3] of 8900 ± 3200 µM.
